Where two headings read alike, the source gives them in different places.
How the values were obtained:
MAO-B = molecular target: T1, MAO-B (Homo sapiens, UniProt P27338); assay: biochemical; conditions: for SI (selectivity index, ratio of IC50 MAO-A to MAO-B): MAO-A vs. MAO-B IC50 ratio; for IC50: mean ± standard error of duplicates, reference compounds after 30 min preincubation with enzyme, read-out: IC50 (µM) MAO-B; for remaining activity at 1 µM: read-out: Residual Activity (%) MAO-B (1.0 µM)
T1 construct: purchased Sigma-Aldrich
T1 sequence (P27338 1-520): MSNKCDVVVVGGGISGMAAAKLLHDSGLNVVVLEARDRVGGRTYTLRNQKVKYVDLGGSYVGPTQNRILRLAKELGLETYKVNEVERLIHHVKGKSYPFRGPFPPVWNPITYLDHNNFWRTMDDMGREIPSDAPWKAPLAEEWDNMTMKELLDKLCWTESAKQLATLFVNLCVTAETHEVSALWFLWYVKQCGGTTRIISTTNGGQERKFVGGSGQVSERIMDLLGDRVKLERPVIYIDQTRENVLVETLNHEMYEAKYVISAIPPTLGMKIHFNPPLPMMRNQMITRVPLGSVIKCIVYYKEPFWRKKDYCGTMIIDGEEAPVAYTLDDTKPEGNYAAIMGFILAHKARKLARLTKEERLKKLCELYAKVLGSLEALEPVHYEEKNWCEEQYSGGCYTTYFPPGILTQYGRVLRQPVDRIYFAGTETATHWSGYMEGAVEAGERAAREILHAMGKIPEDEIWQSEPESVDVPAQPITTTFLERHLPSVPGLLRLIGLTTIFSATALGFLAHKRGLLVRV
Procedure: Recombinant hMAO-A and hMAO-B activities were assayed while using kynuramine (0.06 mM) and benzylamine (0.3 mM) as substrates, respectively, as described previously. […] AChE activity was measured using Type VI-S from Electrophorus electricus in the presence of 0.5 mM 5,5’-dithiobis(2-nitrobenzoic acid) and 0.5 mM acetylthiocholine iodide, as described previously. Enzymes and chemicals were purchased from Sigma–Aldrich (St. Louis, MO, USA). […]

recombinant hMAO-A = molecular target: T2, recombinant hMAO-A (Homo sapiens, UniProt P21397); assay: MAO-A inhibition assay (kynuramine substrate); format: biochemical; conditions: for IC50: mean ± standard error of duplicates, reference compounds after 30 min preincubation with enzyme; for remaining activity at 1 µM: mean ± standard error of duplicate experiments
T2 construct: purchased Sigma-Aldrich
T2 sequence (P21397 1-527): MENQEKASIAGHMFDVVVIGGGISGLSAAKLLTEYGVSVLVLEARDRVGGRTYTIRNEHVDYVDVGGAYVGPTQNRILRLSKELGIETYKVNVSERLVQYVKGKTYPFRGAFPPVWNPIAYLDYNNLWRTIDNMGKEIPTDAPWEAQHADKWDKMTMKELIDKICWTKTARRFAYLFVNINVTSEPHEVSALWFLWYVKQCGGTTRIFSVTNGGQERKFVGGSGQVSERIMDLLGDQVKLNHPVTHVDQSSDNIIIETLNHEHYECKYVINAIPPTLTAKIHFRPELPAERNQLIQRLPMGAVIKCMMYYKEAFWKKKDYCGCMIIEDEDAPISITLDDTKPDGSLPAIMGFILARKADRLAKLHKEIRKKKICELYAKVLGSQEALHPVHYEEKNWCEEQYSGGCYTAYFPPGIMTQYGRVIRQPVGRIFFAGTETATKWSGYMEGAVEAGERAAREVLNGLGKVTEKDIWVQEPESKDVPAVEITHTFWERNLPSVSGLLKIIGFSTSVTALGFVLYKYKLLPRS
Procedure: Recombinant hMAO-A and hMAO-B activities were assayed while using kynuramine (0.06 mM) and benzylamine (0.3 mM) as substrates, respectively, as described previously. […] AChE activity was measured using Type VI-S from Electrophorus electricus in the presence of 0.5 mM 5,5’-dithiobis(2-nitrobenzoic acid) and 0.5 mM acetylthiocholine iodide, as described previously. Enzymes and chemicals were purchased from Sigma–Aldrich (St. Louis, MO, USA).
AChE inhibitory activities were also determined, except at a concentration of 10 µM. […] Kinetic experiments were carried out at five substrate and three inhibitor concentrations.

[1] = molecular target: T3, AChE (Type VI-S from Electrophorus electricus) (Electrophorus electricus, UniProt O42275); assay: AChE inhibition assay (DTNB / acetylthiocholine iodide); format: biochemical; conditions: for remaining activity at 10 µM / Residual Activity (%) AChE (10 µM): mean ± standard error of duplicate experiments
T3 construct: purchased Sigma-Aldrich Type VI-S
Procedure: AChE activity was measured using Type VI-S from Electrophorus electricus in the presence of 0.5 mM 5,5’-dithiobis(2-nitrobenzoic acid) and 0.5 mM acetylthiocholine iodide, as described previously. Enzymes and chemicals were purchased from Sigma–Aldrich (St. Louis, MO, USA).
Kinetic experiments were carried out at five substrate and three inhibitor concentrations.

[2] = read-out: Residual Activity (%) MAO-A (1.0 µM), compound at 1.0 µM
[3] = compound at 1.0 µM, read-out: Residual Activity (%) MAO-A (1.0 µM)
[4] = compound at 10 µM, read-out: Residual Activity (%) AChE (10 µM)

T3 sequence (O42275 24-633): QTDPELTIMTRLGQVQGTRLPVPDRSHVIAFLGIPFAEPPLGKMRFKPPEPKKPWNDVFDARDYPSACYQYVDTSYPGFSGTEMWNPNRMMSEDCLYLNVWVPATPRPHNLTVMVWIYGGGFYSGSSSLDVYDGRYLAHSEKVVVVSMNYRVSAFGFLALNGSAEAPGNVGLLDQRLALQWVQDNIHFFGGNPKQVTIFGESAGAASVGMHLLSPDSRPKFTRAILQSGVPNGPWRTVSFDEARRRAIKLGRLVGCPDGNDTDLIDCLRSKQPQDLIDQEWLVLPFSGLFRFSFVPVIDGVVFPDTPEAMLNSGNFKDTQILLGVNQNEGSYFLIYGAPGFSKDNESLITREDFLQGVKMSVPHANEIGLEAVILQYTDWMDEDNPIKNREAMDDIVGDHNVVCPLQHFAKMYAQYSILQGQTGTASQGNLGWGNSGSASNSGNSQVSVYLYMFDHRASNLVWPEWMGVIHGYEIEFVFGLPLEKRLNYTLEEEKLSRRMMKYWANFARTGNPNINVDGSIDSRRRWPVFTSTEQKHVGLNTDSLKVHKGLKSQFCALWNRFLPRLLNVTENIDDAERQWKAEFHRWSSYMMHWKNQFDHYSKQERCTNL

Row | SMILES | SI (selectivity index, ratio of IC50 MAO-A to MAO-B) (MAO-B) | IC50 (MAO-B) | remaining activity at 1 µM (MAO-B) | IC50 (recombinant hMAO-A) | remaining activity at 1 µM (recombinant hMAO-A; [2]) | IC50 [1] | remaining activity at 10 µM ([1]; read-out: Residual Activity (%) AChE (10 µM), compound at 10 µM) | remaining activity at 1 µM (recombinant hMAO-A; [3]) | Residual Activity (%) AChE (10 µM) ([1]; compound at 10 µM) | remaining activity at 10 µM [1, 4] | remaining activity at 1 µM (MAO-B; compound at 1.0 µM, mean ± standard error of duplicate experiments)
1 | COc1ccc(C(=O)/C=C/c2ccc(O/N=C3\CCc4ccccc43)cc2)cc1 [COE-4] | 32.7 | 0.059 ± 0.012 µM | 4.31 ± 1.22% | 19.3 ± 0.21 µM | 83.7 ± 1.54% | > 40 µM | 62.1 ± 1.51% | – | – | – | –
2 | COc1ccc(/C=C/C(=O)c2ccc(ON=C3CCCCC3)cc2)cc1 [COE-10] | >47.6 | 0.21 ± 0.01 µM | 21.6 ± 1.22% | > 10 µM | – | 9.42 ± 0.031 µM | – | 67.1 ± 2.02% | 47.6 ± 0.93% | < 50% | –
3 | C/C(=N\Oc1ccc(/C=C/C(=O)c2cccc3ccccc23)cc1)c1cccs1 [COE-9] | 20.6 | 0.037 ± 0.0057 µM | 9.91 ± 1.83% | 7.64 ± 0.16 µM | 71.4 ± 0.51% | 8.39 ± 2.14 µM | – | – | 46.7 ± 4.27% | < 50% | –
4 | COc1ccc(/C=C/C(=O)c2ccc(O/N=C(\C)c3ccc(F)cc3)cc2)cc1 [COE-11] | >5.5 | 1.82 ± 0.022 µM | 68.5 ± 1.83% | > 10 µM | – | > 40 µM | – | 86 ± 6.58% | – | 87.2 ± 0.47% | –
5 | C/C(=N\Oc1ccc(/C=C/C(=O)c2ccccc2)cc1)c1ccc(F)cc1 [COE-5] | >8.9 | 1.12 ± 0.1 µM | 57.5 ± 7.01% | > 10 µM | – | 7.06 ± 1.5 µM | – | 95.1 ± 2.68% | 46.5 ± 0.71% | < 50% | –
6 | Cc1ccc(/C=C/C(=O)c2ccc(O/N=C3\CCc4ccccc43)cc2)cc1 [COE-12] | >37.0 | 0.27 ± 0.056 µM | – | > 10 µM | – | > 40 µM | – | 95.7 ± 2.02% | – | 72 ± 1.95% | 40.5 ± 0.1%
7 | COc1ccc(C(/C=C/c2ccccc2)=N\Oc2ccc(/C=C/C(=O)c3ccc(C)cc3)cc2)cc1 [COE-21] | 441.7 | 0.036 ± 0.0019 µM | -2.19 ± 0.08% | 15.9 ± 0.59 µM | – | 9.65 ± 1.2 µM | – | 85.8 ± 1.47% | 49.4 ± 2.90% | < 50% | –
8 | COc1ccc(C(=O)/C=C/c2ccc(O/N=C(\C)c3ccc(OC)cc3)cc2)cc1 [COE-2] | >38.5 | 0.26 ± 0.055 µM | 27.6 ± 2.44% | > 10 µM | – | 15.2 ± 0.55 µM | – | 69.9 ± 0.51% | – | 66.5 ± 3.36% | –
9 | COc1ccc(/C=C/C(=N/Oc2ccc(/C=C/C(=O)c3ccc(OC)cc3)cc2)c2ccc(OC)cc2)cc1 [COE-20] | >28.6 | 0.35 ± 0.011 µM | 21 ± 0.42% | > 10 µM | – | 11.2 ± 1.33 µM | – | 89.7 ± 4.51% | – | 60.6 ± 5.74% | –
10 | COc1ccc(C(=O)/C=C/c2ccc(ON=C(c3ccccc3)c3ccccc3)cc2)cc1 [COE-3] | >208.3 | 0.048 ± 0.021 µM | 21.6 ± 4.88% | > 10 µM | – | > 40 µM | – | 87.3 ± 1% | – | 77.1 ± 0.66% | –

Source: paper PMC7288026, “Novel Class of Chalcone Oxime Ethers as Potent Monoamine Oxidase-B and Acetylcholinesterase Inhibitors” (Molecules, 2020)
